In ChEMBL document CHEMBL1201862, “PubChem BioAssay data set” (2004):
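Briefly, cells in 96-well plates were exposed to five compound concentrations for 48 h, and endpoints were estimated by linear interpolation. GI50: concentration for 50% inhibition of growth.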 The source made the active and inactive calls. No stated cut-off is given here; in the data, active = GI50 up to about 1.1 µM and inactive = higher.

Legend:
Assay in all cases: NCI tumour cell line growth inhibition, 48 h
SNB-75 = system: SNB-75
HCT-15 = system: HCT-15
SK-MEL-2 = system: SK-MEL-2
DMS-273 = system: DMS-273
UO-31 = system: UO-31
COLO 205 = system: COLO 205
OVCAR-4 = system: OVCAR-4
LOX IMVI = system: LOX IMVI
SK-OV-3 = system: SK-OV-3
ACHN = system: ACHN
LXFL 529 = system: LXFL 529
HCT-116 = system: HCT-116
SF-539 = system: SF-539
IGROV-1 = system: IGROV-1
A549 = system: A549
SF-268 = system: SF-268
RPMI-8226 = system: RPMI-8226
UACC-257 = system: UACC-257
M19-MEL = system: M19-MEL
NCI-H460 = system: NCI-H460
DLD-1 = system: DLD-1
M14 = system: M14
NCI-H23 = system: NCI-H23
Malme-3M = system: Malme-3M
HCC 2998 = system: HCC 2998
TK-10 = system: TK-10
UACC-62 = system: UACC-62
RXF 393 = system: RXF 393
KM-20L2 = system: KM-20L2
XF498 = system: XF498
HOP-18 = system: HOP-18
NCI-H226 = system: NCI-H226
EKVX = system: EKVX
A498 = system: A498
U-251 = system: U-251
SN12C = system: SN12C
786-0 = system: 786-0
HOP-92 = system: HOP-92
RXF 631 = system: RXF 631
SK-MEL-28 = system: SK-MEL-28
SNB-78 = system: SNB-78
OVCAR-3 = system: OVCAR-3
SF-295 = system: SF-295
OVCAR-8 = system: OVCAR-8
HT-29 = system: HT-29
KM12 = system: KM12
DMS-114 = system: DMS-114
HOP-62 = system: HOP-62
SW-620 = system: SW-620
SNB-19 = system: SNB-19
SK-MEL-5 = system: SK-MEL-5
CCRF-CEM = system: CCRF-CEM
SR = system: SR
MOLT-4 = system: MOLT-4
HL-60 = system: HL-60
CAKI-1 = system: CAKI-1
OVCAR-5 = system: OVCAR-5
K562 = system: K562
NCI-H522 = system: NCI-H522

N#CC(C(=O)/C(=N/NC(=O)c1ccccc1O)C(C#N)c1ccccc1)c1ccccc1 (centres undefined)
GI50 (SNB-75): > 100 µM (inactive)
GI50 (HCT-15): > 100 µM
GI50 (SK-MEL-2): > 100 µM (inactive)
GI50 (DMS-273): > 100 µM (inactive)
GI50 (UO-31): > 100 µM (inactive)
GI50 (COLO 205): > 100 µM (inactive)
GI50 (OVCAR-4): > 100 µM (inactive)
GI50 (LOX IMVI): > 100 µM (inactive)
GI50 (SK-OV-3): > 100 µM (inactive)
GI50 (ACHN): > 100 µM (inactive)
GI50 (LXFL 529): > 100 µM (inactive)
GI50 (HCT-116): > 100 µM (inactive)
GI50 (SF-539): > 100 µM (inactive)
GI50 (IGROV-1): > 100 µM (inactive)
GI50 (A549): > 100 µM (inactive)
GI50 (SF-268): > 100 µM (inactive)
GI50 (RPMI-8226): > 100 µM (inactive)
GI50 (UACC-257): > 100 µM (inactive)
GI50 (M19-MEL): > 100 µM (inactive)
GI50 (NCI-H460): > 100 µM (inactive)
GI50 (DLD-1): > 100 µM (inactive)
GI50 (M14): > 100 µM (inactive)
GI50 (NCI-H23): > 100 µM (inactive)
GI50 (Malme-3M): > 100 µM (inactive)
GI50 (HCC 2998): > 100 µM (inactive)
GI50 (TK-10): > 100 µM (inactive)
GI50 (UACC-62): > 100 µM (inactive)
GI50 (RXF 393): > 100 µM (inactive)
GI50 (KM-20L2): > 100 µM (inactive)
GI50 (XF498): > 100 µM (inactive)
GI50 (HOP-18): > 100 µM (inactive)
GI50 (NCI-H226): > 100 µM (inactive)
GI50 (EKVX): > 100 µM (inactive)
GI50 (A498): > 100 µM (inactive)
GI50 (U-251): > 100 µM (inactive)
GI50 (SN12C): > 100 µM (inactive)
GI50 (786-0): > 100 µM (inactive)
GI50 (HOP-92): > 100 µM (inactive)
GI50 (RXF 631): > 100 µM (inactive)
GI50 (SK-MEL-28): > 100 µM (inactive)
GI50 (SNB-78): > 100 µM (inactive)
GI50 (OVCAR-3): > 100 µM (inactive)
GI50 (SF-295): > 100 µM (inactive)
GI50 (OVCAR-8): > 100 µM (inactive)
GI50 (HT-29): > 100 µM (inactive)
GI50 (KM12): > 100 µM (inactive)
GI50 (DMS-114): > 100 µM (inactive)
GI50 (HOP-62): > 100 µM (inactive)

O=c1[nH]cnc2c(COCCO)c[nH]c12
GI50 (SW-620): > 100 µM (inactive)
GI50 (SNB-75): > 100 µM (inactive)
GI50 (SNB-19): > 100 µM (inactive)
GI50 (HCT-15): > 100 µM
GI50 (SK-MEL-5): > 100 µM (inactive)
GI50 (SK-MEL-2): > 100 µM (inactive)
GI50 (DMS-273): > 100 µM (inactive)
GI50 (UO-31): > 100 µM (inactive)
GI50 (COLO 205): > 100 µM (inactive)
GI50 (OVCAR-4): > 100 µM (inactive)
GI50 (LOX IMVI): > 100 µM (inactive)
GI50 (CCRF-CEM): > 100 µM (inactive)
GI50 (SK-OV-3): > 100 µM (inactive)
GI50 (ACHN): > 100 µM (inactive)
GI50 (LXFL 529): > 100 µM (inactive)
GI50 (SF-539): > 100 µM (inactive)
GI50 (IGROV-1): > 100 µM (inactive)
GI50 (SF-268): > 100 µM (inactive)
GI50 (SR): > 100 µM (inactive)
GI50 (RPMI-8226): > 100 µM (inactive)
GI50 (UACC-257): > 100 µM (inactive)
GI50 (M19-MEL): > 100 µM (inactive)
GI50 (NCI-H460): > 100 µM (inactive)
GI50 (DLD-1): > 100 µM (inactive)
GI50 (M14): > 100 µM (inactive)
GI50 (NCI-H23): > 100 µM (inactive)
GI50 (Malme-3M): > 100 µM (inactive)
GI50 (TK-10): > 100 µM (inactive)
GI50 (MOLT-4): > 100 µM (inactive)
GI50 (UACC-62): > 100 µM (inactive)
GI50 (RXF 393): > 100 µM (inactive)
GI50 (KM-20L2): > 100 µM (inactive)
GI50 (XF498): > 100 µM (inactive)
GI50 (HOP-18): > 100 µM (inactive)
GI50 (NCI-H226): > 100 µM (inactive)
GI50 (EKVX): > 100 µM (inactive)
GI50 (A498): > 100 µM (inactive)
GI50 (HL-60): > 100 µM (inactive)
GI50 (CAKI-1): > 100 µM (inactive)
GI50 (U-251): > 100 µM (inactive)
GI50 (SN12C): > 100 µM (inactive)
GI50 (786-0): > 100 µM (inactive)
GI50 (OVCAR-5): > 100 µM (inactive)
GI50 (K562): > 100 µM (inactive)
GI50 (HOP-92): > 100 µM (inactive)
GI50 (RXF 631): > 100 µM (inactive)
GI50 (SK-MEL-28): > 100 µM (inactive)
GI50 (SNB-78): > 100 µM (inactive)
GI50 (OVCAR-3): > 100 µM (inactive)
GI50 (NCI-H522): > 100 µM (inactive)
GI50 (SF-295): > 100 µM (inactive)
GI50 (OVCAR-8): > 100 µM (inactive)
GI50 (HT-29): > 100 µM (inactive)
GI50 (KM12): > 100 µM (inactive)
GI50 (DMS-114): > 100 µM (inactive)
GI50 (HOP-62): > 100 µM (inactive)
